# Assay results reported in patent US10196386B2, “Compounds having muscarinic receptor antagonist and beta2 adrenergic receptor agonist activity” (priority 2016, dated 2019).
# Assays:
# Human M3 receptor = molecular target: T1, Human M3 receptor (Homo sapiens, UniProt P20309); experiment: biochemical; assay type: binding; details: read-out: M3 Range
# T1 construct: purchased Perkin Elmer
# Human β2 adrenoceptor = molecular target: T2, Human β2 adrenoceptor (Homo sapiens, UniProt P07550); experiment: β2 adrenoceptor radioligand binding assay
# T2 construct: purchased Perkin Elmer
# T2 sequence (P07550 whole entry): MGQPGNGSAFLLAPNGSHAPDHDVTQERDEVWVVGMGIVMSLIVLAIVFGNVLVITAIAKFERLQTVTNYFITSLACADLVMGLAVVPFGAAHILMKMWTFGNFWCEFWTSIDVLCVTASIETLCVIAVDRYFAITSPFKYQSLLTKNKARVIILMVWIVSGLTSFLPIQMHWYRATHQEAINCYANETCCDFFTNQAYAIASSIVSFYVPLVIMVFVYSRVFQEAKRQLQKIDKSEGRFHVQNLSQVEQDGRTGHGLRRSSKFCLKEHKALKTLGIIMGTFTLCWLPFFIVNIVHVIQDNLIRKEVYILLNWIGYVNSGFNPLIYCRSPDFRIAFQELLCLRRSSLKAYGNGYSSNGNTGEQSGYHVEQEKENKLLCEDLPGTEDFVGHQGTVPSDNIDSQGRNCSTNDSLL
# Method: β2 Adrenoceptor Radioligand Binding Assay
# Human β2 adrenoceptor membranes (7.5 ug/well) from Perkin Elmer were incubated with 0.3 nM 125-I Cyanopindolol with or without test compounds, or a saturating concentration of s-propranolol (2 μM) for the determination of non-specific binding. The assay was carried out in 96-well polypropylene plates in a volume of 200 ul. The assay buffer used was 25 mM HEPES, 0.5% BSA (w/v), 1 mM EDTA, 0.02% ascorbic acid (v/v), (pH 7.4). The final assay concentration of DMSO was 0.5% (v/v). The plates were sealed and incubated for 1 h at room temperature on an orbital shaker (slow speed). Membranes were harvested onto 96-well unifilter GF/C filter plates pre-treated with 0.5% polyethyleneimine (v/v), using a filter manifold, washed six times with 200 ul of wash buffer containing 10 mM HEPES and 500 mM NaCl. The plates were dried before addition of 50 μl of microscint-0, sealed then read in a Trilux Microbeta scintillation counter. IC50 values are determined from competition curves using a non-linear curve fitting program. Ki values were calculated from IC50 values by the Cheng and Prusoff equation.
# T1 sequence (P20309 whole entry): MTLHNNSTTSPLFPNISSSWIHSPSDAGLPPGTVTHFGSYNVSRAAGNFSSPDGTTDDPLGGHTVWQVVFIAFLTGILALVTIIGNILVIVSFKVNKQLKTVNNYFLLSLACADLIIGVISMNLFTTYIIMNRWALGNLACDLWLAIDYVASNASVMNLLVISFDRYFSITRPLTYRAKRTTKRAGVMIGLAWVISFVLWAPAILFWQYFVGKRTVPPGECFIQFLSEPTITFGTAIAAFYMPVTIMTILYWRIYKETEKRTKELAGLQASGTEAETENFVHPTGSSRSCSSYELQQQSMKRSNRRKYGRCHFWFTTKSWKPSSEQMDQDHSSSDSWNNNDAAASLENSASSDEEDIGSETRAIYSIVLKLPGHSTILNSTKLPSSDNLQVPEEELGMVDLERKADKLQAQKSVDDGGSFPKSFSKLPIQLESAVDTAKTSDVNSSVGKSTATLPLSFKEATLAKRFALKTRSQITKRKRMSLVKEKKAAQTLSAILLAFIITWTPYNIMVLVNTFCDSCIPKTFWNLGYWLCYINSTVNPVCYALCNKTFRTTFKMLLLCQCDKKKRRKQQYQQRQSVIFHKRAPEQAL
Structure (SMILES),IC50 (Human M3 receptor) [pM],IC50 (Human β2 adrenoceptor) [pM]
"O=C(NCc1ccc(-c2cccc([C@](O)(C(=O)OC3CCC4(CC3)CCN(Cc3ccccc3)CC4)c3ccccc3)c2)s1)c1ccc(CNC[C@H](O)c2ccc(O)c3[nH]c(=O)ccc23)cc1 [Compound 2H, 3-Benzyl-3-azaspiro[5.5]undecan-9-yl (S)-2-hydroxy-2-(3-(5-((4-((((R)-2-hydroxy-2-(8-hydroxy-2-oxo-1,2-dihydroquinolin-5-yl)ethyl)amino)-methyl)benzamido)methyl)thiophen-2-yl)phenyl)-2-phenylacetate]",> 3000,< 300
"O=C(c1ccc(CCNC[C@H](O)c2ccc(O)c3[nH]c(=O)ccc23)cc1)N1CC=C(c2cccc([C@](O)(C(=O)OCC3CCN(Cc4ccccc4)CC3)c3ccccc3)c2)CC1 [Compound 3, (1-Benzylpiperidin-4-yl)methyl (S)-2-hydroxy-2-(3-(1-(4-(2-(((R)-2-hydroxy-2-(8-hydroxy-2-oxo-1,2-dihydroquinolin-5-yl)ethyl)amino)ethyl)benzoyl)-1,2,3,6-tetrahydropyridin-4-yl)phenyl)-2-phenylacetate]",< 300,< 300
"O=C(NCc1ccc(-c2cccc([C@](O)(C(=O)OCC3CCN(Cc4ccccc4)CC3)c3ccccc3)c2)o1)c1ccc(CNC[C@H](O)c2ccc(O)c3[nH]c(=O)ccc23)cc1 [Compound 3A, (1-Benzylpiperidin-4-yl)methyl (S)-2-hydroxy-2-(3-(5-((4-((((R)-2-hydroxy-2-(8-hydroxy-2-oxo-1,2-dihydroquinolin-5-yl)ethyl)amino)methyl)-benzamido)methyl)furan-2-yl)phenyl)-2-phenylacetate]",300 to 3000,300 to 3000
"O=C(c1ccc(CNC[C@H](O)c2ccc(O)c3[nH]c(=O)ccc23)cc1)N1CC=C(c2cccc([C@](O)(C(=O)OCC3CCN(Cc4ccccc4)CC3)c3ccccc3)c2)CC1 [Compound 3B, (1-Benzylpiperidin-4-yl)methyl (S)-2-hydroxy-2-(3-(1-(4-((((R)-2-hydroxy-2-(8-hydroxy-2-oxo-1,2-dihydroquinolin-5-yl)ethyl)amino)methyl)benzoyl)-1,2,3,6-tetrahydropyridin-4-yl)phenyl)-2-phenylacetate]",300 to 3000,< 300
"COc1cc(C(=O)N2CC=C(c3cccc([C@](O)(C(=O)OCC4CCN(Cc5ccccc5)CC4)c4ccccc4)c3)CC2)ccc1CNC[C@H](O)c1ccc(O)c2[nH]c(=O)ccc12 [Compound 3C, (1-Benzylpiperidin-4-yl)methyl (S)-2-hydroxy-2-(3-(1-(4-((((R)-2-hydroxy-2-(8-hydroxy-2-oxo-1,2-dihydroquinolin-5-yl)ethyl)amino)methyl)-3-methoxybenzoyl)-1,2,3,6-tetrahydropyridin-4-yl)phenyl)-2-phenylacetate]",< 300,< 300
"COc1c(CNC[C@H](O)c2ccc(O)c3[nH]c(=O)ccc23)ccc(C(=O)N2CC=C(c3cccc([C@](O)(C(=O)OCC4CCN(Cc5ccccc5)CC4)c4ccccc4)c3)CC2)c1F [Compound 3D, (1-Benzylpiperidin-4-yl)methyl (S)-2-(3-(1-(2-fluoro-4-((((R)-2-hydroxy-2-(8-hydroxy-2-oxo-1,2-dihydroquinolin-5-yl)ethyl)amino)methyl)-3-methoxybenzoyl)-1,2,3,6-tetrahydropyridin-4-yl)phenyl)-2-hydroxy-2-phenylacetate]",300 to 3000,300 to 3000
"COc1cc(CNC[C@H](O)c2ccc(O)c3[nH]c(=O)ccc23)ccc1C(=O)N1CC=C(c2cccc([C@](O)(C(=O)OCC3CCN(Cc4ccccc4)CC3)c3ccccc3)c2)CC1 [Compound 3E, (1-Benzylpiperidin-4-yl)methyl (S)-2-hydroxy-2-(3-(1-(4-((((R)-2-hydroxy-2-(8-hydroxy-2-oxo-1,2-dihydroquinolin-5-yl)ethyl)amino)methyl)-2-methoxybenzoyl)-1,2,3,6-tetrahydropyridin-4-yl)phenyl)-2-phenylacetate]",< 300,< 300
"O=C(c1ccc(CCNC[C@H](O)c2ccc(O)c3[nH]c(=O)ccc23)cc1)N1CC=C(c2cccc([C@](O)(C(=O)OCC3CCN(Cc4ccccc4)CC3)c3ccccc3)c2)C1 [Compound 3F, (1-Benzylpiperidin-4-yl)methyl (S)-2-hydroxy-2-(3-(1-(4-(2-(((R)-2-hydroxy-2-(8-hydroxy-2-oxo-1,2-dihydroquinolin-5-yl)ethyl)amino)ethyl)benzoyl)-2,5-dihydro-1H-pyrrol-3-yl)phenyl)-2-phenylacetate]",300 to 3000,< 300
"O=C(c1ccc(CNC[C@H](O)c2ccc(O)c3[nH]c(=O)ccc23)cc1)N1CC=C(c2cccc([C@](O)(C(=O)OCC3CCN(Cc4ccccc4)CC3)c3ccccc3)c2)C1 [Compound 3G, (1-Benzylpiperidin-4-yl)methyl (S)-2-hydroxy-2-(3-(1-(4-((((R)-2-hydroxy-2-(8-hydroxy-2-oxo-1,2-dihydroquinolin-5-yl)ethyl)amino)methyl)benzoyl)-2,5-dihydro-1H-pyrrol-3-yl)phenyl)-2-phenylacetate]",300 to 3000,< 300
"COc1cc(C(=O)N2CCC=C(c3cccc([C@](O)(C(=O)OCC4CCN(Cc5ccccc5)CC4)c4ccccc4)c3)C2)ccc1CNC[C@H](O)c1ccc(O)c2[nH]c(=O)ccc12 [Compound 3H, (1-Benzylpiperidin-4-yl)methyl (S)-2-hydroxy-2-(3-(1-(4-((((R)-2-hydroxy-2-(8-hydroxy-2-oxo-1,2-dihydroquinolin-5-yl)ethyl)amino)methyl)-3-methoxybenzoyl)-1,2,5,6-tetrahydropyridin-3-yl)phenyl)-2-phenylacetate]",300 to 3000,< 300
"O=C(c1ccc(CNC[C@H](O)c2ccc(O)c3[nH]c(=O)ccc23)cc1)N1CCC=C(c2cccc([C@](O)(C(=O)OCC3CCN(Cc4ccccc4)CC3)c3ccccc3)c2)C1 [Compound 3I, (1-Benzylpiperidin-4-yl)methyl (S)-2-hydroxy-2-(3-(1-(4-((((R)-2-hydroxy-2-(8-hydroxy-2-oxo-1,2-dihydroquinolin-5-yl)ethyl)amino)methyl)benzoyl)-1,2,5,6-tetrahydropyridin-3-yl)phenyl)-2-phenylacetate]",300 to 3000,300 to 3000
"COc1cc(C(=O)N2CC=C(c3cccc([C@](O)(C(=O)OCC4CCN(Cc5ccccc5)CC4)c4ccccc4)c3)C2)ccc1CNC[C@H](O)c1ccc(O)c2[nH]c(=O)ccc12 [Compound 3J, (1-Benzylpiperidin-4-yl)methyl (S)-2-hydroxy-2-(3-(1-(4-((((R)-2-hydroxy-2-(8-hydroxy-2-oxo-1,2-dihydroquinolin-5-yl)ethyl)amino)methyl)-3-methoxybenzoyl)-2,5-dihydro-1H-pyrrol-3-yl)phenyl)-2-phenylacetate]",< 300,< 300
"O=C(NCc1ncc(-c2cccc([C@](O)(C(=O)OCC3CCN(Cc4ccccc4)CC3)c3ccccc3)c2)cn1)c1ccc(CNC[C@H](O)c2ccc(O)c3[nH]c(=O)ccc23)cc1 [Compound 4, (1-Benzylpiperidin-4-yl)methyl (S)-2-hydroxy-2-(3-(2-((4-((((R)-2-hydroxy-2-(8-hydroxy-2-oxo-1,2-dihydroquinolin-5-yl)ethyl)amino)methyl)benzamido)-methyl)pyrimidin-5-yl)phenyl)-2-phenylacetate]",300 to 3000,300 to 3000
"COc1cc(C(=O)NCc2ccnc(-c3cccc([C@](O)(C(=O)OCC4CCN(Cc5ccccc5)CC4)c4ccccc4)c3)n2)ccc1CNC[C@H](O)c1ccc(O)c2[nH]c(=O)ccc12 [Compound 4A, (1-Benzylpiperidin-4-yl)methyl (S)-2-hydroxy-2-(3-(4-((4-((((R)-2-hydroxy-2-(8-hydroxy-2-oxo-1,2-dihydroquinolin-5-yl)ethyl)amino)methyl)-3-methoxybenzamido)methyl)pyrimidin-2-yl)phenyl)-2-phenylacetate]",300 to 3000,< 300
"O=C(NCc1cnc(-c2cccc([C@](O)(C(=O)OCC3CCN(Cc4ccccc4)CC3)c3ccccc3)c2)cn1)c1ccc(CNC[C@H](O)c2ccc(O)c3[nH]c(=O)ccc23)cc1 [Compound 4B, (1-Benzylpiperidin-4-yl)methyl (S)-2-hydroxy-2-(3-(5-((4-((((R)-2-hydroxy-2-(8-hydroxy-2-oxo-1,2-dihydroquinolin-5-yl)ethyl)amino)methyl)-benzamido)methyl)pyrazin-2-yl)phenyl)-2-phenylacetate]",< 300,300 to 3000
"COc1cc(C(=O)NCc2ccc(-c3cccc([C@](O)(C(=O)OCC4CCN(Cc5ccccc5)CC4)c4ccccc4)c3)nn2)ccc1CNC[C@H](O)c1ccc(O)c2[nH]c(=O)ccc12 [Compound 4C, (1-Benzylpiperidin-4-yl)methyl (S)-2-hydroxy-2-(3-(6-((4-((((R)-2-hydroxy-2-(8-hydroxy-2-oxo-1,2-dihydroquinolin-5-yl)ethyl)amino)methyl)-3-methoxybenzamido)methyl)pyridazin-3-yl)phenyl)-2-phenylacetate]",< 300,< 300
"O=C(NCc1ccnc(-c2cccc([C@](O)(C(=O)OCC3CCN(Cc4ccccc4)CC3)c3ccccc3)c2)n1)c1ccc(CNC[C@H](O)c2ccc(O)c3[nH]c(=O)ccc23)cc1 [Compound 4D, (1-Benzylpiperidin-4-yl)methyl (S)-2-hydroxy-2-(3-(4-((4-((((R)-2-hydroxy-2-(8-hydroxy-2-oxo-1,2-dihydroquinolin-5-yl)ethyl)amino)methyl)-benzamido)methyl)pyrimidin-2-yl)phenyl)-2-phenylacetate]",300 to 3000,300 to 3000
